SMILES strings stand for the structures.

The test system of this experiment is Aβ1-40 production in rat cortical neurons. The experiment is described as follows: Aβ1-40 level in conditioned medium of rat cortical neurons (rodent Aβ immunoassay). The following applies: rat cortical neurons of 7 days of culture, treated at various concentrations for 7 days (FIG. 2B); read-out: IC50 for reduction of Aβ1-40 level in conditioned medium. The experiment is classed as cell-based. How it is done:
Mouse monoclonal antibody specific for the N-terminal of mouse/rat Aβ was immobilized by incubation of 96-well polystyrene plate with 50 ul of the antibody at 4 ug/ml in each well in a coating buffer (0.1 M NaHCO3 pH 8.2) overnight at 4° C. The plates were washed thereafter each step for 3 times with 200 μl/well PBST (PBS with 0.5% Tween-20). The wells were then sequentially incubated with 50 μl/well test samples containing mouse/rat or human Aβ1-40 or Aβ1-42 overnight at 4° C. Primary rabbit antibodies specific for either Aβ1-40 or Aβ1-42 (BioSource International Inc., Camarillo, Calif.) were added to each well at 50 ul/well for a final concentration of 400 ng/ml, and incubated at room temperature. […] The color signal was measured at […] in a spectrophotometer. […] This indicates the specificity of the assay for rodent Aβ The assay detected both mouse/rat Aβ1-40 and Aβ1-42 at levels less than 15 ng/ml (FIG. 1C).
The amount released can be reduced by a γ-secretase inhibitor. […] The cortical neurons of 7 days of culture were treated with gamma-secretase inhibitor L-685,458 at various concentrations for 7 days and the Aβ1-40 level was measured in the conditioned medium. […]
The effect of nicotinic receptor ligands on Aβ production was analyzed by measurement of the Aβ1-40 level in the conditioned media of rat cortical cultures treated with α7 nAChR selective ligands for 7 days. […]

Broadly, the IC50 is the concentration needed to halve the response being measured. Turning to `CC(C)C[C@H](NC(=O)[C@H](Cc1ccccc1)C[C@@H](O)[C@H](Cc1ccccc1)NC(=O)OC(C)(C)C)C(=O)N[C@@H](Cc1ccccc1)C(N)=O` [L-685,458], the IC50 came out at 431 nM.

The values are drawn from patent publication US20080234311A1, “IMMUNOASSAY FOR DETECTION AND QUANTIFICATION OF AMYLOID-beta PEPTIDES” (priority 2006, published 2008).
